{
  "source": "patent US9492482B2",
  "about": "“Engineered cells expressing multiple immunomodulators and uses thereof” (Intrexon Corporation, priority 2008, dated 2016)",
  "test_system": "DC.RheoIL12",
  "assay": "IL-12 secretion from DC.RheoIL12 with or without activating ligand",
  "format": "cell-based",
  "settings": "in the presence of the activating ligand RG-115830 but not in the absence of the ligand",
  "protocol": "In one embodiment, the invention provides an engineered population of immune cells and TSC. In one embodiment, day 7 cultured DC are treated with recombinant adenovirus encoding an immunomodulator and/or IL-12 driven off a constitutive or inducible promoter, or are infected with mock, control adenovirus vector (rAdψ5), over a range of multiplicity of infection (MOIs). After 48 h, infected DC are harvested and analyzed for phenotype and for production of an immunomodulator and/or IL-12 using a specific ELISA kit (BD-PharMingen, San Diego, Calif.), with a lower level of detection of 62.5 pg/ml.",
  "data": [
    {"compound": "CCCC(N(NC(=O)c1cccc(OC)c1CC)C(=O)c1cc(C)cc(C)c1)C(C)(C)C", "note": "(stereo not shown) [RG-115830, 3,5-Dimethyl-benzoic acid N-(1-tert-butyl-butyl)-N′-(2-ethyl-3-methoxy-benzoyl)-hydrazide]", "values": [
      {"measurement": "IL-12 secreted from DC.RheoIL12", "result": "elevated levels of IL-12 are secreted"}
    ]}
  ]
}
